Experimental data reported in patent publication US20240400579A1, “SPIROCYCLIC MODULATORS OF CHOLESTEROL BIOSYNTHESIS AND THEIR USE FOR PROMOTING REMYELINATION” (GENENTECH, INC., priority 2021, published 2024).
Like-named read-outs stand apart in the source and are kept apart here.

Tests used:
[1] = tested on: zymostenol accumulation in EpiSC-derived OPCs (EBP); assay: GC/MS-based sterol profiling, zymostenol accumulation; type: cell-based, mouse; details: 8 doses from 0.15 nM to 333 nM, read-out: mZymo GCMS EC50
Procedure: (§1) To assess effects of treatments on OPCs, all treatments were assayed in two or more independent platings of epiblast stem cell-derived OPCs (EpiSC). EpiSC-derived OPCs were obtained using in vitro differentiation protocols and culture conditions described previously (Najm et al, 2011, Nature Methods). OPCs were expanded and frozen down in aliquots. OPCs were thawed into growth conditions for at least one passage before use in further assays.
Sterols were monitored using a modified Folch wash protocol (Hubler et al, 2018, Nature). EpiSC-derived OPCs were plated at 100,000 cells per well in PO— and laminin-coated 96-well plates in N2B27 media without growth factors. After 24 hours, cells were rinsed with saline and plates were frozen. Cholesterol-d7 standard was then added to each well before drying under nitrogen stream and derivatization with 55 μl of bis(trimethylsilyl) trifluoroacetamide. After derivatization, 2 μl were analyzed by gas chromatography/mass spectrometry using an Agilent 5973 Network Mass Selective Detector equipped with a 6890 gas chromatograph system and a HP-5MS capillary column (30 m x 0.25 mm×[…]). Samples were analyzed in full scan mode using electron impact ionization; ion fragment peaks were integrated to calculate sterol abundance, and quantitation was relative to cholesterol-d7. The following ion fragments were used to quantitate each metabolite: cholesterol-d7 (465), FF-Mas (482), cholesterol (368), zymostenol (458), zymosterol (456), Desmosterol (456, 343), 7-dehydrocholesterol (456, 325), lanosterol (393), lathosterol (458), 14-dehydrozymostenol (456, 351). […] All standards were obtained from Avanti Polar Lipids unless otherwise indicated. Calibration curves were generated by injecting varying concentrations of sterol standards and maintaining a fixed amount of cholesterol-D7. For normalized zymostenol accumulation results, the total amount of zymostenol measured after drug treatment was divided by the total amount of zymostenol accumulated after 24 hr treatment with 100 nM positive control reference.

[2] = biological target: human emopamil binding protein and human 7-dehydrocholesterol reductase co-expressing cell membrane (Homo sapiens (Human), UniProt Q15125); assay: hEBP-DHCR7 radioligand filtration binding assay with [3H]-Compound 118A*; details: radioligand [3H]-Compound 118A*; HEK293 membrane co-expressing hEBP and DHCR7
human emopamil binding protein and human 7-dehydrocholesterol reductase co-expressing cell membrane, sequence (Q15125 whole entry): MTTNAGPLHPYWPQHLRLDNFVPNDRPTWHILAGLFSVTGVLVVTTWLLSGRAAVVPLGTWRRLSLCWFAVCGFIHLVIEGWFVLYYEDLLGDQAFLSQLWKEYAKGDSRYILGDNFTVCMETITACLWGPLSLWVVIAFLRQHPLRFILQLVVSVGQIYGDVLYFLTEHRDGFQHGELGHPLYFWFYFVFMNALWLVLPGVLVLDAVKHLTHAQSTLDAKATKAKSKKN
Procedure: Membrane Preparation: human emopamil binding protein and human 7-dehydrocholesterol reductase co-expressing cells were generated by transient transfecting host human embryonic kidney (HEK) 293 cells with 2 DNA constructs containing each protein's coding sequence. Cells were suspension cultured at 37° C. with 5% CO2 in […] 293 Expression Medium (Thermofisher). Whole cell membrane was prepared by harvesting the cell pellet, adding cold membrane buffer (50 mM Tris, pH7.5, 1× Roche COMPLETE EDTA-free protease inhibitor cocktail) 10 times volume of the cell pellets weight, lysing cell pellet on ice by using Dounce homogenizer, spinning at 200 g 4° C. for 15 min, collecting supernatant and spinning again at 25000 g 4° C. for 50 min, transferring pellet to Dounce homogenizer, re-suspending pellet by homogenizing in membrane buffer on ice to reach ˜25 mg/mL, then keeping whole cell membrane aliquots at −80° C.
Compounds were prepared in a 96-well U bottom plate using an Echo550 machine and 10 mM compound DMSO stock solution, followed by an 8-dose 5-fold serial dilutions protocol with final testing compound concentration ranging from 0.06 to 5000 nM, with DMSO back fill to 100 nL/well and n=2. […] The UniFilter-96 GF/B plates were pre-treated by adding 50 μl/well of 0.3% (v/v) PEI to UniFilter-96 GF/B plates. The plates were sealed and incubated at 4° C. for 3 hrs. Then, the plates were washed with ice-cold assay buffer 3 times. The radioligand binding assay was prepared by adding assay buffer diluted hEBP-DHCR7 membrane at 66.7 μg/ml x 150 μl/well into the 96-well compound plate to reach 10 μg membrane per well. Then, the assay buffer diluted [3H]-Compound 118A* was added at 25 nM×50 μl/well. Following this, the plate was centrifuged at 1000 rpm for 30 secs. The plate was then sealed and agitated at 600 rpm at 22° C. for 5 min, and then incubated at 22° C. for 3 hrs. The incubation was stopped by transferring the binding solution to the pre-treated UniFilter-96 GF/B plate, vacuum filtrated, and then washed four times with ice-cold assay buffer. Following this, the plates were dried at 37° C. for 45 min. The plates were then sealed at the bottom. 40 μl/well of scintillation cocktail was added to the plates. A MicroBeta2 microplate counter was then used to read the plate and analyze the data. For reference and test compounds, the results are expressed as % Inhibition, using the normalization equation: N=100-100×(U−C2)/(C1−C2), where U is the unknown value, C1 is the average of high controls, and C2 is the average value of low controls. The IC50 was determined by fitting percentage of inhibition as a function of compound concentrations with Hill equation using XLfit. Results are expressed as hEBP-DHCR7 Ki (uM) in Table 4. Ki was calculated as described above.

[3] = tested on: EpiSC-derived OPCs; assay: In vitro phenotypic screening of OPCs, MBP high-content imaging; type: cell-based, mouse; details: percentage of MBP+ oligodendrocytes, 3 days, 0.5 nM to 1000 nM, read-out: mOPC EC50
Procedure: as §1
EpiSC-derived OPCs were grown and expanded in poly-L-ornithine (PO) and laminin-coated flasks in N2B27 media (DMEM/F12 (Gibco), N2-MAX (R&D Systems), B-27 (ThermoFisher), and GlutaMax (Gibco)) supplemented with FGF2 ([…], R&D systems, 233-FB-025) and PDGF-AA ([…], R&D systems, 233-AA-050) before harvesting for experiments. The cells were seeded onto poly-L-ornithine or poly-D-lysine coated CellCarrier Ultra plates (PerkinElmer) coated with laminin (Sigma, L2020) at a density of 150,000/cm^2 in N2B27 media without growth factors. For dose-response testing, a 1000× compound stock in dimethyl sulphoxide (DMSO) was added to assay plates, resulting in 8-point dose curves with final concentrations between 1000 nM and 0.5 nM. Positive controls and DMSO vehicle controls were included in each assay plate. Cells were incubated under standard conditions (37° C., 5% CO2) for 3 days and fixed with 4% paraformaldehyde (PFA) in phosphate buffered saline (PBS) for 20 min. Fixed plates were washed with PBS, permeabilized with 0.1% Triton X-100, and blocked with 10% donkey serum (v/v) in PBS for 40 min. Then, cells were labelled with MBP antibodies (Abcam, ab7349; 1:200) for 2 h at room temperature, washed with PBS, and stained with Alexa Fluor conjugated secondary antibodies (1:500) for 45 min. Nuclei were visualized by DAPI staining (Sigma; 1 μg/ml), followed by further PBS washes.
Cells and cell culture plates were imaged on the Operetta High Content Imaging and Analysis system (PerkinElmer). Analysis (PerkinElmer Harmony and Columbus software) began by identifying intact nuclei stained by DAPI. The peri-nuclear region of each cell was then cross-referenced with the mature myelin protein (MBP) stain to identify oligodendrocyte nuclei, and from this the percentage of oligodendrocytes was calculated. EC50 values were calculated using The Levenberg-Marquardt algorithm to fit a Hill equation to dose-response data (0.5 nM to 1000 nM).

| SMILES | EC50 ([1]; 24 hours) [nM] | Ki [2] [nM] | EC50 [3] [nM] | EC50 ([1]; Mus musculus, 24 h) [nM] | EC50 ([3]; Mus musculus, 72 h) [nM] |
| --- | --- | --- | --- | --- | --- |
| C[C@H](Cc1ccc(C2(C)CC2)cc1)CN1CCC2(C1)CS(=O)(=O)C2 (single isomer, unassigned) [111B*] |  |  |  | 1.4 | 1.5 |
| C[C@@H](Cc1ccc(C2(C)CC2)cc1)CN1CCC2(C1)CS(=O)(=O)C2 (single isomer, unassigned) [111C*] |  |  |  | 7.1 | 6.1 |
| C[C@@H](Cc1ccc(C2CCC(F)(F)CC2)c(Cl)c1)CN1CCC2(C1)CS(=O)(=O)C2 (single isomer, unassigned) [117A*] |  | 9.43 |  |  | 1.5 |
| C[C@H](Cc1ccc(C(F)(F)F)nc1)CN1CC2(CCS(=O)(=O)CC2)C1 (single isomer, unassigned) [234A*] |  | 250 |  | 49 |  |
| O=S1(=O)CC2(CCN(CCOc3ccnc([C@H]4CC[C@@H](C(F)(F)F)CC4)c3)CC2)C1 [245A*, 7-(2-((2-((cis)-4-(Trifluoromethyl)cyclohexyl)pyridin-4-yl)oxy)ethyl)-2-thia-7-azaspiro[3.5]nonane 2,2-dioxide] |  | 16 |  | 10.5 |  |
| O=S1(=O)CC2(CCN(CCOc3ccnc([C@H]4CC[C@H](C(F)(F)F)CC4)c3)CC2)C1 [245B*, 7-(2-((2-((trans)-4-(trifluoromethyl)cyclohexyl)pyridin-4-yl)oxy)ethyl)-2-thia-7-azaspiro[3.5]nonane 2,2-dioxide] |  | 19.7 |  | 8.37 |  |
| O=S1(=O)CC2(CCN(CCOc3ccc([C@H]4CC[C@@H](C(F)(F)F)CC4)nc3)CC2)C1 [247B*, 7-(2-((6-((cis)-4-(trifluoromethyl)cyclohexyl)pyridin-3-yl)oxy)ethyl)-2-thia-7-azaspiro[3.5]nonane 2,2-dioxide] |  | 8.97 |  | 68.6 |  |
| CC(Cc1ccc(C(F)(F)F)cc1)CN1CCC2(C1)CS(=O)(=O)C2 (stereo not shown) [Compound 104, 6-(2-Methyl-3-(4-(trifluoromethyl)phenyl)propyl)-2-thia-6-azaspiro[3.4]octane 2,2-dioxide] |  |  |  | 0.48 | 1.7 |

Results, then the compound that gave them:

| EC50 ([1]; 24 hours) [nM] | Ki [2] [nM] | EC50 [3] [nM] | EC50 ([1]; Mus musculus, 24 h) [nM] | EC50 ([3]; Mus musculus, 72 h) [nM] | SMILES |
| --- | --- | --- | --- | --- | --- |
| 14 | 11.9 | 54 |  |  | C[C@H](Cc1ccc([C@H]2CC[C@](C)(O)CC2)c(Cl)c1)CN1CCC2(C1)CS(=O)(=O)C2 (mixture of isomers) [Compound 123A, 6-((R)-3-(3-Chloro-4-((1r,4R)-4-hydroxy-4-methylcyclohexyl)phenyl)-2-methylpropyl)-2-thia-6-azaspiro[3.4]octane 2,2-dioxide, 6-((S)-3-(3-chloro-4-((1r,4S)-4-hydroxy-4-methylcyclohexyl)phenyl)-2-methylpropyl)-2-thia-6-azaspiro[3.4]octane 2,2-dioxide] |
|  | 33.6 |  | 31 |  | C[C@@H](CN1CCC2(CC1)CS(=O)(=O)C2)Oc1ccc(C(F)(F)F)nc1 (single isomer, unassigned) [Example 207A*] |
|  |  |  | 0.41 | 18 | O=S1(=O)CC2(CCN(CCCc3ccc(C(F)(F)F)cc3)C2)C1 [Compound 113, 6-(3-(4-(Trifluoromethyl)phenyl)propyl)-2-thia-6-azaspiro[3.4]octane-2,2-dioxide] |
|  | 11.9 |  | 0.97 |  | CC(C)(CN1CCC2(CC1)CS(=O)(=O)C2)Oc1ccc(F)c(C(F)(F)F)c1 [Compound 220, 7-(2-(4-Fluoro-3-(trifluoromethyl)phenoxy)-2-methylpropyl)-2-thia-7-azaspiro[3.5]nonane 2,2-dioxide] |
|  | 69 |  | 14.9 |  | O=S1(=O)CC2(CCN(CCOc3ccc(-c4ccc(C(F)(F)F)nc4)nc3)CC2)C1 [Compound 241, 7-[2-[[6-[6-(Trifluoromethyl)-3-pyridyl]-3-pyridyl]oxy]ethyl]-26-thia-7-azaspiro[3.5]nonane 2,2-dioxide] |
|  |  |  | 4.51 | 16.3 | O=S1(=O)CC2(CCN(CCOc3cnc(C(F)(F)F)c(Cl)c3)CC2)C1 [Compound 242, 7-[2-[[5-Chloro-6-(trifluoromethyl)-3-pyridyl]oxy]ethyl]-26-thia-7-azaspiro[3.5]nonane 2,2-dioxide] |
|  | 53 |  | 6.61 |  | Cc1nc(C(F)(F)F)ccc1OCCN1CCC2(CC1)CS(=O)(=O)C2 [Compound 243, 7-[2-[[2-Methyl-6-(trifluoromethyl)-3-pyridyl]oxy]ethyl]-26-thia-7-azaspiro[3.5]nonane 2,2-dioxide] |
|  | 10.7 |  | 23.5 |  | O=S1(=O)CC2(CCN(CCOc3cnc(C4CCCCC4)c(C(F)(F)F)c3)CC2)C1 [Compound 244, 7-(2-((6-Cyclohexyl-5-(trifluoromethyl)pyridin-3-yl)oxy)ethyl)-2-thia-7-azaspiro[3.5]nonane 2,2-dioxide] |
|  |  |  | 0.62 | 0.72 | CC(C)(Cc1ccc(C(F)(F)F)cc1)CN1CCC2(C1)CS(=O)(=O)C2 [Example 125, 6-(2,2-Dimethyl-3-(4-(trifluoromethyl)phenyl)propyl)-2-thia-6-azaspiro[3.4]octane-2,2-dioxide] |
|  | 13.9 |  | 1.5 |  | CC(C)(CN1CCC2(CC1)CS(=O)(=O)C2)Oc1ccc(F)c(F)c1 [Example 156, 7-(2-(3,4-Difluorophenoxy)-2-methylpropyl)-2-thia-7-azaspiro[3.5]nonane 2,2-dioxide] |
